# Assay results as given in US20240199755A1, “ANTAGONISTS AND AGONISTS OF THE TRANSFERRIN RECEPTOR-2 FOR USE IN THE TREATMENT OF DISEASES OF THE BONE” (Kymab Limited, priority 2018, published 2024).
# “Also recorded” adds a separate entry of the source.
# Tests used:
# Tfr2-ECD = target: T1, Tfr2-ECD (Mus musculus, UniProt Q9JKX3); test: SPR binding of holo-Tf and BMP receptors to Tfr2-ECD immobilized on the sensor chip; set-up: species or system murine; conditions: 200 nM BMP receptors; binding level normalized to molecular weight
# T1 construct: full-length extracellular domain (ECD, aa 103-798) of murine Tfr2; His (N); MBP (N); c3 (protease site between MBP and ECD) (N); made in house; host or cells: Sf9 insect cells (baculovirus, pOCC211-Tfr2-ECD)
# T1 sequence (Q9JKX3 103-798): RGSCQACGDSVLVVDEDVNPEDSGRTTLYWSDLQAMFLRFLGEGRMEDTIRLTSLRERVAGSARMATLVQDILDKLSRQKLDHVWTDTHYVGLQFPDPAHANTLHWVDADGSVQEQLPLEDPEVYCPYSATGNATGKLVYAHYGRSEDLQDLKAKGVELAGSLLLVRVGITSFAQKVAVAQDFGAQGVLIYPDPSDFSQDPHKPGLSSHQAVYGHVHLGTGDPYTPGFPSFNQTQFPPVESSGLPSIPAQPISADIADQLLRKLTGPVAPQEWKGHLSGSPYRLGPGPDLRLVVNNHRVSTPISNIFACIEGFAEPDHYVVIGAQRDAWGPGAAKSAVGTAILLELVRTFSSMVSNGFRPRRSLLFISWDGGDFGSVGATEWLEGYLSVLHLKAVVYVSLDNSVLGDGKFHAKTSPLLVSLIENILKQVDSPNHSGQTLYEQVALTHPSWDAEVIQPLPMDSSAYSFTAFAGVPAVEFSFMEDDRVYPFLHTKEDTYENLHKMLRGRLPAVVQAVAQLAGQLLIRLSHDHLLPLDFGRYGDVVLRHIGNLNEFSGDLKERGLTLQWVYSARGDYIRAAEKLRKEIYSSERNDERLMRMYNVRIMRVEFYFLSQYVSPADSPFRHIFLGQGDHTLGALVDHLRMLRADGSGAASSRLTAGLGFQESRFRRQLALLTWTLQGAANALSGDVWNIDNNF
# Method: For this purpose, Tfr2-ECD is immobilized on a Series S Sensor Chip C1 (GE Healthcare), by means of coupling the amino groups at 25° C. The carboxyl groups on the chip surface are activated for 7 minutes using a mixture of 196 mM 1-ethyl-3-(3-dimethylaminopropyl) carbodiimide-hydrochloride and 50 mM n-hydroxysuccinimide at a flow rate of 10 μl/min. Subsequently, 5 μg/ml Tfr2-ECD, diluted with sodium acetate buffer (pH 4.5), is injected at a flow rate of 5 μl/min up to a relative occupancy of 200 RU. Non-reacted groups are inactivated by injecting 1 M thanolamine-HCl (pH 8.5) for 7 minutes at a flow rate of 10 μl/min. In order to prepare a reference surface, the same procedure is carried out but without Tfr2-ECD being injected.
# The binding assays are carried out at 37° C. at a flow rate of 30 μl/min. Each analyte is diluted by a running buffer (HBS-P, pH 7.4 together with 50 nM FeCl3). […] The values of the binding level are read out, relative to the baseline, 10 s before the end of the injection and are corrected with respect to the molar mass. […] The binding parameters are determined using the Biacore™ T100 evaluation software 2.03. […]
# For binding analysis, an injection of analyte for 240 s or 300 s over a Tfr2-ECD surface was followed by 1000 s dissociation. The values of the binding levels were recorded from referenced signals 10 s before the end of injection relative to baseline response. […]
# [1] = test system: trauma-induced heterotopic ossification; test: Trauma-potentiated (drop-weight) heterotopic ossification model; type: in vivo; conditions: WT mice; after three weeks; Tfr2-ECD single dose, palovarotene or ibuprofen daily
# Method: For systemic Tfr2-ECD treatment, WT mice were treated every other day with Tfr2-ECD intraperitoneally for two weeks. Mice received 250 μg Tfr2-ECD (10 mg/kg BW) per injection for the first 10 days after BMP-2/matrigel injection into the muscle and 125 μg per injection (5 mg/kg BW) for the remaining time. This experiment was performed once with 8-10 mice per group. Drop-weight HO: This experiment was performed according to Liu et al. with minor modifications^65. Female 10-12-week-old WT mice were anesthetized and placed on a ridge of a plastic container over which the right leg was bent so the femur was lying horizontally. Mice received an injection of 1 μg BMP-2 mixed in 50 μl matrigel. Afterwards, a stainless-steel ball of 16 g (16 mm diameter) was dropped from a distance of 80 cm height onto the quadriceps muscle. Mice either received a single dose of 1 μg Tfr2-ECD, which was co-injected with the BMP-2/matrigel mixture, or palovarotene (Hycultec), which was administered daily by oral gavage. Palovarotene was dissolved in DMSO and diluted 1:4 with corn oil. Mice received palovarotene at a dose of 100 μg/mouse for the first five days and 50 μg/mouse for the remainder of the experiment (days 621). One group of mice received ibuprofen via the drinking water at a dose of […] which was changed every other day^66. […]
# [2] = test system: BMP-2-induced heterotopic ossification; test: BMP-2-induced heterotopic ossification (HO) mouse model; type: in vivo, mice; conditions: WT mice; day 8; systemic treatment; Safranin O staining
# Method: Male and female C57BL/6 mice are used for the HO model. The HO is triggered by injecting BMP-2 into the muscle (Wosczyna et al. 2012).
# All the mice are fed with standard feed and water ad libitum and are kept in groups of five mice per cage. The mice are exposed to a 12-hour light/dark cycle and air cooling to 23° C. (no special pathogen-free room). Enrichment is provided in the form of cardboard houses and bedding material. The mice are randomly divided into the different treatment groups and the assays are subsequently carried out as blind experiments.
# The HO is examined by means of treatment using 2.5 μl of a 1 mg/ml recombinant BMP-2 solution (Thermo Fisher Scientific) or 2.5 μl of a 1 mg/ml Tfr2-ECD mixed with 47.5 μl Matrigel (BD Bioscience) at 0° C. For combination treatment, 2.5 of a 1 mg/ml recombinant BMP-2 solution is mixed with 2.5 μl of a 1 mg/ml Tfr2-ECD and 45 μl Matrigel. The Matrigel mixtures are injected into the musculus tibialis anterior of 10-week-old female wild-type mice. The legs are examined after two weeks.
# The bone microarchitecture is analyzed using vivaCT40 (Scanco Medical, Switzerland). The entire lower leg bones are measured at a resolution of 10.5 μm using X-rays of 70 kVp, […] and at an integration time of 200 s. Predefined scripts from Scanco are used to analyze the bone (#1). […]
Binding response of BMPRs to Tfr2-ECD compared with BMPs (Tfr2-ECD),Compound,"New bone formation in the muscle (trauma-induced HO, μCT) [1]",Number of chondrocytes (chondrogenic phase of HO) [2],Production of cartilage (chondrogenic phase of HO) [2]
weaker than BMPs,"BMPR-IA: BMP receptor type IA (R&D Systems), positive control in the BMP-2 ELISA",–,–,–
–,CC(C)Cc1ccc(C(C)C(=O)O)cc1 (centres unmarked) [ibuprofen],did not prevent; also recorded: did not significantly reduce,–,–
–,"CC1(C)CCC(C)(C)c2cc(Cn3cccn3)c(/C=C/c3ccc(C(=O)O)cc3)cc21 [palovarotene, reference compound]",comparable,suppressed,suppressed
